Reference: paper PMC9572083, “Hybrids of 1,4-Quinone with Quinoline Derivatives: Synthesis, Biological Activity, and Molecular Docking with DT-Diaphorase (NQO1)” (Molecules, 2022)

Key:
[1] = target: T1, NQO1 (DT-diaphorase, EC 1.6.5.5, human recombinant) (Homo sapiens, UniProt P15559); test: NQO1 substrate NADPH recycling enzymatic assay; type: biochemical; settings: compound 10 µmol/L, pH 7.4, 25 °C, absorbance at 340 nm
T1 construct: purchased Sigma-Aldrich
Method: The interaction between 1,4-quinone moiety of hybrid and NQO1 protein leads to reduction in quinone to hydroquinone and production of reactive oxide form (ROS). According to a literature method, the ability of hybrids 11–14 and streptonigrin (ST) to be a substrate for NQO1 was examined by measuring the oxidation of NADPH to NADP^+ [29, 32].
Compounds 11–14 (10 µmol/L) were tested as NQO1 substrates using the NADPH recycling assay according to the literature method. The recombinant NQO1 (DT-diaphorase, EC 1.6.5.5, human recombinant, Sigma-Aldrich) was used, and the oxidation of NADPH to NADP^+ was measured at the absorption wavelength of 340 nm on the BioTek 800TS microplate reader (BioKom, Janki, Poland). Compounds were dissolved in dimethyl sulfoxide (2 µL) and added to the 96-well plate. The NQO1 protein (1.4 µg/mL) in 50 mmol/L potassium phosphate buffer (pH = 7.4) was added to each well (198 µL) (Nunc Thermo Fisher Scientific, Waltham, MA, USA). Once the 96-well plate was filled with the assay solutions, except the NADPH solution, it was placed into the instrument and left to sit for 5 min before starting the measurements. The enzymatic reaction was initiated by automatically dispensing the NADPH solution into the wells, and data were recorded at 10 s intervals for 5 min at 25 °C. The linear part of the absorbance vs. time graphs (the first 20 s to 1 min) was fitted, and the slopes were calculated. NADPH oxidation rates were compared with reactions lacking the tested compound. Initial velocities were calculated, and data were expressed as µmol NADPH/µmol NQO1/min. All reactions were carried out at least in triplicate.

[2] = tested on: Colo-829 cells; test: Cytotoxic activity, WST-1 assay, melanoma Colo-829; type: cell-based, human; settings: for IC50: Homo sapiens, melanoma Colo-829, 72 h, WST-1; for SI (IC50 HFF-1/IC50 cancer line) Colo-829: HFF-1 vs Colo-829
Text: (§1) Anticancer activity of compounds 11–14 was designated against following human cancer cell lines: melanoma (Colo-829), ovarian cancer (SK-OV-3), breast cancer (MDA-MB-231, T47D and MCF-7), lung cancer (A549) and normal fibroblasts (HFF-1). As a reference substance, the doxorubicin was used. The results are presented in Table 1 as IC50, where IC50 means the concentration of tested compounds (µM) causing the growth inhibition of 50% for given tumor cells. The negative value (Neg.) means that the IC50 is higher than 30 µM. Selectivity index (SI) as the ratio of the IC50 for normal fibroblast (HFF-1) to IC50 of the corresponding cell line, is presented in Table S2.
(§2) Compounds 7–14 and doxorubicin were tested for cytotoxic activity in vitro against panel of human cancer cell lines: melanoma (Colo-829, ATCC, Rockville, MD, USA), ovarian cancer (SK-OV-3, ATCC, Rockville, MD, USA), breast cancer (T47D, MCF-7, and MDA-MB-231, ATCC, Rockville, MD, USA) and lung cancer (A549, ATCC, Rockville, MD, USA). The cultured cells were kept at 37 °C and 5% CO2. The cells were seeded (5 × 10^4 cells/well/[…] DMEM supplemented with 10% FCS and streptomycin/penicillin) using 96-well plates (Nunc Thermo Fisher Scientific, Waltham, MA, USA). The tested compounds 7–14 with the concentration of 1–100 µg/mL DMSO were inducted with the cancer cells for 72 h. The WST-1-formazan (proliferation reagent WST-1 assay, Roche Diagnostics, Mannheim, Germany) was detected using a microplate reader at 450 nm. Results were expressed as a mean value of at least three independent experiments performed in triplicate.

[3] = tested on: SK-OV-3 cells; test: Cytotoxic activity, WST-1 assay, ovarian cancer SK-OV-3; type: cell-based, human; settings: for IC50: Homo sapiens, ovarian cancer SK-OV-3, 72 h, WST-1; for SI (IC50 HFF-1/IC50 cancer line) SK-OV-3: HFF-1 vs SK-OV-3
Text: as §1, §2

[4] = tested on: MDA-MB-231 cells; test: Cytotoxic activity, WST-1 assay, breast cancer MDA-MB-231; type: cell-based, human; settings: for IC50: Homo sapiens, breast cancer MDA-MB-231, 72 h, WST-1; for SI (IC50 HFF-1/IC50 cancer line) MDA-MB-231: HFF-1 vs MDA-MB-231
Text: as §1, §2

[5] = tested on: T47D cells; test: Cytotoxic activity, WST-1 assay, breast cancer T47D; type: cell-based, human; settings: for IC50: Homo sapiens, breast cancer T47D, 72 h, WST-1; for SI (IC50 HFF-1/IC50 cancer line) T47D: HFF-1 vs T47D
Text: as §1, §2

[6] = tested on: MCF-7 cells; test: Cytotoxic activity, WST-1 assay, breast cancer MCF-7; type: cell-based, human; settings: for IC50: Homo sapiens, MCF7, breast cancer MCF-7, 72 h, WST-1; for SI (IC50 HFF-1/IC50 cancer line) MCF-7: HFF-1 vs MCF-7
Text: as §1, §2

[7] = tested on: A549 cells; test: Cytotoxic activity, WST-1 assay, lung cancer A549; type: cell-based, human; settings: for IC50: Homo sapiens, lung cancer A549, 72 h, WST-1; for SI (IC50 HFF-1/IC50 cancer line) A549: HFF-1 vs A549
Text: as §1, §2

[8] = tested on: HFF-1 cells; test: Cytotoxic activity, WST-1 assay, normal fibroblasts HFF-1; type: cell-based; settings: Homo sapiens, normal fibroblasts HFF-1, 72 h
Text: as §1, §2

T1 sequence (P15559 whole entry): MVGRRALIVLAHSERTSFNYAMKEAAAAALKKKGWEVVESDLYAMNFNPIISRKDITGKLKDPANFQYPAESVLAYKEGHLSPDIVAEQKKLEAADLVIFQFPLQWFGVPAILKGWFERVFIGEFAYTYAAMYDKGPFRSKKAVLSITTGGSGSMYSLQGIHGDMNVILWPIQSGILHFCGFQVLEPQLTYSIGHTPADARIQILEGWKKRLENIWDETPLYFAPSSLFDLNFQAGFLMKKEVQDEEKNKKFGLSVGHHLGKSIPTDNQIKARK

SMILES	NQO1 activity (enzymatic conversion rate) [1]	IC50 [2]	IC50 [3]	IC50 [4]	IC50 [5]	IC50 [6]	IC50 [7]	IC50 [8]	SI (IC50 HFF-1/IC50 cancer line) Colo-829 [2]	SI (IC50 HFF-1/IC50 cancer line) SK-OV-3 [3]	SI (IC50 HFF-1/IC50 cancer line) MDA-MB-231 [4]	SI (IC50 HFF-1/IC50 cancer line) T47D [5]	SI (IC50 HFF-1/IC50 cancer line) MCF-7 [6]	SI (IC50 HFF-1/IC50 cancer line) A549 [7]	NQO1 activity (enzymatic conversion rate) ([1]; listed as streptonigrin)
O=C1C(Cl)=C(Oc2cccc3ccc(N4CCOCC4)nc23)C(=O)c2ccccc21 [Compound 14f, 2-chloro-3-{[2-(morpholin-4-yl)quinolin-8-yl]oxy}naphthalene-1,4-dione]	87 ± 15 µmol NADPH/µmol NQO1/min	11.3 ± 1.97 µM	14.2 ± 0.76 µM	2.35 ± 0.09 µM	> 30 µM	17.4 ± 1.02 µM	14 ± 0.86 µM	20.3 ± 0.87 µM							
COc1cccc2c1C(=O)c1c(O)c3c(c(O)c1C2=O)C[C@@](O)(C(=O)CO)C[C@@H]3O[C@H]1C[C@H](N)[C@H](O)[C@H](C)O1 [Doxorubicin, doxorubicin, reference compound]		0.05 ± 0.01 µM	0.15 ± 0.03 µM	0.64 ± 0.06 µM	0.04 ± 0.01 µM	0.12 ± 0.05 µM	0.02 ± 0.01 µM	0.12 ± 0.03 µM	2.40	0.80	0.19	3.00	1.00	6.00	
Cc1ccc2c(n1)C(=O)C(Oc1cccc3ccc(N4CCOCC4)nc13)=C(Cl)C2=O [Compound 12f, 6-chloro-2-methyl-7-{[2-(morpholin-4-yl)quinolin-8-yl]oxy}quinoline-5,8-dione]	210 ± 20 µmol NADPH/µmol NQO1/min	13.3 ± 0.21 µM	13.5 ± 0.21 µM	10.2 ± 0.28 µM	17.3 ± 0.26 µM	14.1 ± 0.67 µM	11.6 ± 0.72 µM	19.9 ± 0.93 µM	1.49	1.48	1.95	1.15	1.41	1.72	
COC1=C(N)C(=O)c2nc(-c3nc(C(=O)O)c(C)c(-c4ccc(OC)c(OC)c4O)c3N)ccc2C1=O [ST, streptonigrin, reference compound]	725 ± 84 µmol NADPH/µmol NQO1/min														725 µmol NADPH/µmol NQO1/min
O=C1C(Cl)=C(Oc2cccc3ccc(N4CCCC4)nc23)C(=O)c2ccccc21 [Compound 14e, 2-chloro-3-{[2-(pyrrolidin-1-yl)quinolin-8-yl]oxy}naphthalene-1,4-dione]	354 ± 22 µmol NADPH/µmol NQO1/min	22 ± 0.6 µM	15.9 ± 0.22 µM	7.66 ± 1.12 µM	> 30 µM	24.05 ± 0.21 µM	22.1 ± 0.89 µM	18.7 ± 1.36 µM	0.85	1.17	2.43		0.78	0.84	
